Test results: patent US20260146062A1, “COMPOUNDS AND METHODS FOR TREATING DISEASES CAUSED BY VIRUSES AND BACTERIA” (The Trustees of Indiana University, priority 2022, published 2026)

Test system: SARS-CoV2 virus
Assay: Inhibition of Viral Replication (plaque count)
Format: cell-based
Details: with increased concentration of inhibitor

`CC(C)C[C@H](NC(=O)c1cc2ccccc2[nH]1)C(=O)NC(C=O)Cc1ccc(F)cc1` (stereo partly shown) [Compound 112] was tested, and the “inhibition ability (FIG. 6)” value was “increased inhibition ability of Compound No. 112 with increased concentration”.
